Source: PubChem BioAssay AID256 (DTP/NCI, 2004)
Values joined by “and” are separate entries in the source; they are usually repeats but may differ in a detail not shown here. Identical values can stand only once. Inconclusive results and toxic doses are left out. How the source made its calls: active means survival T/C of 150% or more; inactive means T/C below 125% in these data.

Tested on: CD2F1 mice, L1210 leukemia ip, survival T/C
Test: NCI In Vivo Anticancer Drug Screen. Data for tumor model L1210 Leukemia (intraperitoneal) in CD2F1 (CDF1) mice
Conditions: higher = longer survival
Procedure, shortened: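 Implant tumor; dose compound or vehicle; measure endpoint in both groups; report treated divided by control.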

[1] = endpoint: mean survival time, dose: 100.0 mg/kg/injection, schedule: Q04DX002 (ip), vehicle: saline with Tween-80
[2] = endpoint: mean survival time, dose: 200.0 mg/kg/injection, schedule: Q04DX002 (ip), vehicle: saline with Tween-80
[3] = endpoint: mean survival time, dose: 400.0 mg/kg/injection, schedule: Q04DX002 (ip), vehicle: saline with Tween-80
[4] = endpoint: mean survival time, dose: 100.0 mg/kg/injection, schedule: Q01DX001 (ip), vehicle: saline with Tween-80
[5] = endpoint: mean survival time, dose: 200.0 mg/kg/injection, schedule: Q01DX001 (ip), vehicle: saline with Tween-80
[6] = endpoint: mean survival time, dose: 400.0 mg/kg/injection, schedule: Q01DX001 (ip), vehicle: saline with Tween-80
[7] = endpoint: mean survival time, dose: 25.0 mg/kg/injection, schedule: Q04DX003 (ip), vehicle: saline with Tween-80
[8] = endpoint: mean survival time, dose: 50.0 mg/kg/injection, schedule: Q01DX009 (ip), vehicle: saline with Tween-80
[9] = endpoint: mean survival time, dose: 100.0 mg/kg/injection, schedule: Q01DX009 (ip), vehicle: saline with Tween-80
[10] = endpoint: mean survival time, dose: 100.0 mg/kg/injection, schedule: Q04DX003 (ip), vehicle: saline with Tween-80
[11] = endpoint: mean survival time, dose: 200.0 mg/kg/injection, schedule: Q01DX009 (ip), vehicle: saline with Tween-80
[12] = endpoint: mean survival time, dose: 200.0 mg/kg/injection, schedule: Q04DX003 (ip), vehicle: saline with Tween-80
[13] = endpoint: mean survival time, dose: 400.0 mg/kg/injection, schedule: Q04DX003 (ip), vehicle: saline with Tween-80
[14] = endpoint: mean survival time, dose: 75.0 mg/kg/injection, schedule: Q01DX001 (ip), vehicle: saline
[15] = endpoint: mean survival time, dose: 400.0 mg/kg/injection, schedule: Q01DX009 (ip), vehicle: saline with Tween-80
[16] = endpoint: mean survival time, dose: 100.0 mg/kg/injection, schedule: Q04DX003 (ip), vehicle: Klucel (hydroxypropylcellulose) (HPC)
[17] = endpoint: mean survival time, dose: 200.0 mg/kg/injection, schedule: Q04DX003 (ip), vehicle: Klucel (hydroxypropylcellulose) (HPC)
[18] = endpoint: mean survival time, dose: 100.0 mg/kg/injection, schedule: Q01DX001 (ip), vehicle: saline
[19] = endpoint: mean survival time, dose: 200.0 mg/kg/injection, schedule: Q01DX001 (ip), vehicle: saline
[20] = endpoint: mean survival time, dose: 400.0 mg/kg/injection, schedule: Q01DX001 (ip), vehicle: saline
[21] = endpoint: mean survival time, dose: 100.0 mg/kg/injection, schedule: Q01DX009 (ip), vehicle: Klucel (hydroxypropylcellulose) (HPC)

Measured: T/C

O=C1C=Cc2ccccc2/C1=C/c1nc(/C=C/c2ccccc2)oc1O
inactive: [1] 117 % of control | [2] 113 % of control | [3] 105 % of control

CC(=O)OC1CCC2(C)C(=CCC3C2CCC2(C)C(C(C)C(=O)O)CCC32)C1 (configuration not stated)
inactive: [4] 102 % of control | [5] 100 % of control | [6] 96 % of control

CS(=O)(=O)C(Cl)(Cl)S(C)(=O)=O
inactive: endpoint: mean survival time, dose: 6.25 mg/kg/injection, schedule: Q04DX003 (ip), vehicle: saline with Tween-80 95 % of control | endpoint: mean survival time, dose: 12.5 mg/kg/injection, schedule: Q04DX003 (ip), vehicle: saline with Tween-80 91 % of control | [7] 91 % of control

OC1C2CCC1C(N1CCOCC1)CC2 (configuration not stated)
inactive: [8] 103 % of control | [9] 109 % of control | [10] 98 % of control | [11] 97 % of control | [12] 102 % of control

O.O.[Cl][Pt+2][Cl].[NH-]C1CCCCC1[NH-] (configuration not stated)
inactive: endpoint: mean survival time, dose: 2.5 mg/kg/injection, schedule: Q04DX003 (ip), vehicle: dextrose 110 % of control | endpoint: mean survival time, dose: 5.0 mg/kg/injection, schedule: Q04DX003 (ip), vehicle: dextrose 113 % of control | endpoint: mean survival time, dose: 80.0 mg/kg/injection, schedule: Q04DX003 (ip), vehicle: dextrose 96 % of control | endpoint: median survival time, dose: 1.25 mg/kg/injection, schedule: Q04DX003 (ip), vehicle: saline 109 % of control | endpoint: median survival time, dose: 2.5 mg/kg/injection, schedule: Q04DX003 (ip), vehicle: saline 110 % of control | endpoint: median survival time, dose: 4.0 mg/kg/injection, schedule: Q04DX003 (ip), vehicle: saline 110 % of control [middle of 5 runs] | endpoint: median survival time, dose: 5.0 mg/kg/injection, schedule: Q04DX003 (ip), vehicle: saline 119 % of control | endpoint: median survival time, dose: 8.0 mg/kg/injection, schedule: Q04DX003 (ip), vehicle: saline 120 % of control | endpoint: median survival time, dose: 64.0 mg/kg/injection, schedule: Q04DX003 (ip), vehicle: saline 98 % of control and 120 % of control and 124 % of control

Nc1ccccc1C(=O)C/C=C/c1ccccc1
inactive: [4] 95 % of control | [5] 91 % of control | [6] 87 % of control

CCc1ccc(CC)c(CC)c1CC
inactive: [8] 98 % of control | [9] 95 % of control | [10] 98 % of control | [11] 92 % of control | [12] 104 % of control

N#CCCNCCNCCC#N
inactive: [8] 96 % of control | [9] 104 % of control | [11] 104 % of control

Oc1ccccc1C=Nc1ccc(N=Cc2ccccc2O)cc1
inactive: [10] 88 % of control | [12] 91 % of control | [13] 100 % of control

CCCCCCCCCCCCCCCCCC(=O)NCCN(CC)CC
inactive: [14] 101 % of control

COc1ccc(C(C)c2ccccc2)cc1 (configuration not stated)
inactive: [9] 97 % of control | [11] 95 % of control | [15] 97 % of control

O=C1C2C3C=CC(C3)C2C(=NS(=O)(=O)c2ccccc2)C2C3C=CC(C3)C12 (configuration not stated)
inactive: [16] 91 % of control | [17] 93 % of control | endpoint: mean survival time, dose: 400.0 mg/kg/injection, schedule: Q04DX003 (ip), vehicle: Klucel (hydroxypropylcellulose) (HPC) 91 % of control

C=CCN1CCCC1=O
inactive: [9] 100 % of control | [11] 102 % of control | [15] 102 % of control

C/C(=C/Cc1c(O)c(C)c2c(c1O)C(=O)OC2)CCC(=O)NCCc1ccccc1
inactive: [1] 87 % of control | [2] 87 % of control | [3] 96 % of control

COc1ccccc1OC(=O)Nc1ccc(C)c([N+](=O)[O-])c1
inactive: [7] 96 % of control | endpoint: mean survival time, dose: 50.0 mg/kg/injection, schedule: Q04DX003 (ip), vehicle: saline with Tween-80 93 % of control | [10] 98 % of control and 103 % of control | [13] 97 % of control

COC(=O)C1(C(=O)OC)CCCCC1=O
inactive: [9] 98 % of control | [10] 97 % of control | [11] 95 % of control | [12] 94 % of control | [15] 95 % of control | [13] 89 % of control

CC(=O)NC1=C(Sc2ccc(C)cc2)C(=O)c2ccccc2C1=O
inactive: [14] 96 % of control | endpoint: mean survival time, dose: 150.0 mg/kg/injection, schedule: Q01DX001 (ip), vehicle: saline 98 % of control | endpoint: mean survival time, dose: 300.0 mg/kg/injection, schedule: Q01DX001 (ip), vehicle: saline 108 % of control

O=C1C=CC(=O)N1c1cccc(N2C(=O)C=CC2=O)c1
inactive: endpoint: mean survival time, dose: 4.0 mg/kg/injection, schedule: Q01DX009 (ip), vehicle: saline 96 % of control | endpoint: mean survival time, dose: 8.0 mg/kg/injection, schedule: Q01DX009 (ip), vehicle: saline 106 % of control

CN1C(=S)c2ccccc2S1(=O)=O
inactive: endpoint: mean survival time, dose: 100.0 mg/kg/injection, schedule: Q01DX009 (ip), vehicle: saline 96 % of control | endpoint: mean survival time, dose: 200.0 mg/kg/injection, schedule: Q01DX009 (ip), vehicle: saline 96 % of control | endpoint: mean survival time, dose: 400.0 mg/kg/injection, schedule: Q01DX009 (ip), vehicle: saline 102 % of control

N#CC12CCCC(=O)N1C=Cc1ccccc12 (configuration not stated)
inactive: [18] 107 % of control | [19] 100 % of control | [20] 97 % of control

CCC(C)NC(=O)Nc1ccccc1C(F)(F)F (configuration not stated)
inactive: [4] 106 % of control | [9] 92 % of control | [5] 95 % of control | [11] 88 % of control | [6] 89 % of control | [15] 94 % of control

C1CCC2OCCOCCOC3CCCCC3OCCOCCOC2C1 (configuration not stated)
inactive: endpoint: mean survival time, dose: 3.12 mg/kg/injection, schedule: Q01DX009 (ip), vehicle: Klucel (hydroxypropylcellulose) (HPC) 108 % of control | endpoint: mean survival time, dose: 6.25 mg/kg/injection, schedule: Q01DX009 (ip), vehicle: Klucel (hydroxypropylcellulose) (HPC) 98 % of control and 103 % of control | endpoint: mean survival time, dose: 12.5 mg/kg/injection, schedule: Q01DX009 (ip), vehicle: Klucel (hydroxypropylcellulose) (HPC) 87 % of control and 100 % of control | endpoint: mean survival time, dose: 25.0 mg/kg/injection, schedule: Q01DX009 (ip), vehicle: Klucel (hydroxypropylcellulose) (HPC) 102 % of control and 103 % of control | endpoint: mean survival time, dose: 50.0 mg/kg/injection, schedule: Q01DX009 (ip), vehicle: Klucel (hydroxypropylcellulose) (HPC) 100 % of control and 104 % of control | [21] 91 % of control

C/C=C1/C(=O)Oc2ccccc21
inactive: [8] 101 % of control | [9] 101 % of control | [11] 106 % of control

O=C(Nc1ccccc1C(F)(F)F)OCCOc1ccccc1Cl
inactive: [21] 103 % of control | endpoint: mean survival time, dose: 400.0 mg/kg/injection, schedule: Q01DX009 (ip), vehicle: Klucel (hydroxypropylcellulose) (HPC) 89 % of control

CC12CCC(=O)C=C1CCC1C2C(=O)CC2(C)C1CCC2(O)C(=O)Cn1c(=O)[nH]cc(F)c1=O (configuration not stated)
inactive: endpoint: mean survival time, dose: 12.5 mg/kg/injection, schedule: Q04DX003 (ip), vehicle: Klucel (hydroxypropylcellulose) (HPC) 103 % of control | endpoint: mean survival time, dose: 25.0 mg/kg/injection, schedule: Q04DX003 (ip), vehicle: Klucel (hydroxypropylcellulose) (HPC) 97 % of control | endpoint: mean survival time, dose: 50.0 mg/kg/injection, schedule: Q04DX003 (ip), vehicle: Klucel (hydroxypropylcellulose) (HPC) 100 % of control | [16] 97 % of control | [17] 97 % of control

CN(C)c1ccc(C(=O)OOOOC(c2ccc(N(C)C)cc2)(c2ccc(N(C)C)cc2)c2ccc(N(C)C)cc2)cc1
inactive: endpoint: mean survival time, dose: 50.0 mg/kg/injection, schedule: Q01DX001 (ip), vehicle: saline 95 % of control | [18] 95 % of control | [19] 107 % of control | [20] 89 % of control
